{"source": "ChEMBL document CHEMBL3596144", "about": "“New Indole Tubulin Assembly Inhibitors Cause Stable Arrest of Mitotic Progression, Enhanced Stimulation of Natural Killer Cell Cytotoxic Activity, and Repression of Hedgehog-Dependent Cancer” (J Med Chem, 2015)", "key": {"[1]": {"molecular_target": "Protein smoothened (Mus musculus) (UniProt P56726)", "sequence (P56726 whole entry)": "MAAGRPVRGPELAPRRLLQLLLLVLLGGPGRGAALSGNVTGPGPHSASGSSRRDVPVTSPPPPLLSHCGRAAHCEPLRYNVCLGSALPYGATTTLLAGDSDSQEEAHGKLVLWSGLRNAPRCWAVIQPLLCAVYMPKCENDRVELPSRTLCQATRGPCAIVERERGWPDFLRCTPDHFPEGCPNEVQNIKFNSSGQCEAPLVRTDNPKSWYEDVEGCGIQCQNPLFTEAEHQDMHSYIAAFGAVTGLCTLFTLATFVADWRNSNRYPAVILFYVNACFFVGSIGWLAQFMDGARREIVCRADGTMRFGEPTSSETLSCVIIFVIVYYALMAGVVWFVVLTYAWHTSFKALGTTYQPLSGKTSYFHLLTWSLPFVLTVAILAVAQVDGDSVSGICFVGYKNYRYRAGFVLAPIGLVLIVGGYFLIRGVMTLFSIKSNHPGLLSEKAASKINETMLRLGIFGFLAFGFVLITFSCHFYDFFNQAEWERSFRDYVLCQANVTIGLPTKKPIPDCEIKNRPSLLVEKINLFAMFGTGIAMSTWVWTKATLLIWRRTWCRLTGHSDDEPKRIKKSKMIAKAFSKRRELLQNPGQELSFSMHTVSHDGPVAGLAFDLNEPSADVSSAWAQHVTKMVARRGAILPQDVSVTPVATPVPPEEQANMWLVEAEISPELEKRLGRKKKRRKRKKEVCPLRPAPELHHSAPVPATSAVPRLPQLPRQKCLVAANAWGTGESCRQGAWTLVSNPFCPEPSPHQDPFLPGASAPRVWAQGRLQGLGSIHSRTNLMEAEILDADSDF", "experiment": "Antagonist activity at smo receptor in mouse NIH3T3 Shh-Light II cells assessed as inhibition of SAG-induced hedgehog pathway after 48 hrs by dual luciferase reporter gene assay", "assay_type": "cell-based"}, "PC-3 [2]": {"test_system": "PC-3", "experiment": "Cell cycle arrest in human PC3 cells assessed as accumulation at G2/M phase at 500 to 2000 nM after 24 hrs by propidium iodide staining-based flow cytometric analysis", "assay_type": "functional"}, "PC-3 [3]": {"test_system": "PC-3", "experiment": "Induction of apoptosis in human PC3 cells after 48 hrs by propidium iodide/annexin V-FITC staining-based cytofluorometric analysis", "assay_type": "functional, cell-based"}, "OVCAR-8": {"test_system": "OVCAR-8", "experiment": "cells", "settings": "Homo sapiens, OVCAR-8, 48 h", "description": "Cytotoxicity against human OVCAR8 cells assessed as growth inhibition after 48 hrs by SRB assay"}, "RD [4]": {"test_system": "RD", "experiment": "Induction of apoptosis in human RD cells at 500 nM after 48 hrs by propidium iodide/annexin V-FITC staining-based cytofluorometric analysis", "assay_type": "functional, cell-based"}, "RD [5]": {"test_system": "RD", "experiment": "Cytotoxicity against human RD cells assessed as growth inhibition after 48 hrs by MTT assay", "assay_type": "functional, cell-based"}, "NCI-H1975": {"test_system": "NCI-H1975", "experiment": "Cytotoxicity against human NCI-H1975 cells assessed as growth inhibition after 72 hrs by CellTiter-Fluor assay", "assay_type": "functional, cell-based", "settings": "NCI-H1975, 72 h"}, "HepG2 [6]": {"test_system": "HepG2", "experiment": "Cell cycle arrest in human HepG2 cells assessed as accumulation at G2/M phase at 500 to 2000 nM after 24 hrs by propidium iodide staining-based flow cytometric analysis", "assay_type": "functional"}, "RD [7]": {"test_system": "RD", "experiment": "Cell cycle arrest in human RD cells assessed as accumulation at G2/M phase at 500 to 2000 nM after 24 hrs by propidium iodide staining-based flow cytometric analysis", "assay_type": "functional"}, "HepG2 [8]": {"test_system": "HepG2", "experiment": "Induction of apoptosis in human HepG2 cells after 48 hrs by propidium iodide/annexin V-FITC staining-based cytofluorometric analysis", "assay_type": "functional, cell-based"}, "[9]": {"experiment": "Intrinsic clearance in human liver microsomes assessed per mg of protein preincubated for 10 mins followed by NADP/Glc6P/G6P-DH addition by LC-MS/MS analysis", "assay_type": "ADME", "settings": "read-out: CLH"}, "[10]": {"experiment": "Intrinsic clearance in mouse liver microsomes assessed per mg of protein preincubated for 10 mins followed by NADP/Glc6P/G6P-DH addition by LC-MS/MS analysis", "assay_type": "ADME", "settings": "read-out: CLH"}, "HeLa [11]": {"test_system": "HeLa", "experiment": "Cell cycle arrest in human HeLa cells assessed as accumulation at sub-G1 phase at 20 nM after 24 hrs by propidium iodide staining-based flow cytometric analysis", "assay_type": "functional"}, "HeLa [12]": {"test_system": "HeLa", "experiment": "Induction of apoptosis in human HeLa cells at 20 nM after 24 hrs by propidium iodide/annexin V-FITC staining-based cytofluorometric analysis", "assay_type": "functional, cell-based"}, "PC-3 [13]": {"test_system": "PC-3", "experiment": "cells", "settings": "Homo sapiens, PC-3, 48 h", "description": "Cytotoxicity against human PC3 cells assessed as growth inhibition after 48 hrs by MTT assay"}, "[14]": {"experiment": "Cytotoxicity against human MESSA cells assessed as growth inhibition after 72 hrs by CellTiter-Glo assay", "assay_type": "functional, cell-based", "settings": "MES-SA"}, "[15]": {"experiment": "Cytotoxicity against human MESSA/DX5 cells assessed as growth inhibition after 72 hrs by CellTiter-Glo assay", "assay_type": "functional, cell-based", "settings": "MES-SA/Dx5, 72 h"}, "cells": {"experiment": "cells", "settings": "Homo sapiens, NCI/ADR-RES, 48 h", "description": "Cytotoxicity against Pgp overexpressing human NCI-ADR-RES cells assessed as growth inhibition after 48 hrs by SRB assay"}, "HeLa [16]": {"test_system": "HeLa", "experiment": "Inhibition of microtubule polymerization in human HeLa cells assessed as appearance of tubulin foci and/or small asters of short microtubule fragments at 20 nM after 24 hrs by immunofluorescence staining-based microscopic analysis", "assay_type": "cell-based"}, "HeLa [17]": {"test_system": "HeLa", "experiment": "Cell cycle arrest in human HeLa cells assessed as accumulation at G2/M phase at 20 nM after 24 hrs by propidium iodide staining-based flow cytometric analysis", "assay_type": "functional"}, "HeLa [18]": {"test_system": "HeLa", "experiment": "Upregulation of DNAM1 ligand expression in human HeLa cells after 48 hrs by immunofluorescence staining-based flow cytometric analysis", "assay_type": "functional, cell-based"}, "HeLa [19]": {"test_system": "HeLa", "experiment": "Upregulation of NKG2D ligand expression in human HeLa cells after 48 hrs by immunofluorescence staining-based flow cytometric analysis", "assay_type": "functional, cell-based"}}, "note": "The source made the active and inactive calls. The rule behind the calls is not given here.", "data": [{"smiles": "COc1cc(Sc2c(-c3ccccc3)[nH]c3c(Cl)c(Cl)ccc23)cc(OC)c1OC", "values": [{"measurement": "inhibition", "setting": "[1]", "value": "Dose-dependent effect"}]}, {"smiles": "CC(=O)O[C@H]1C(=O)[C@@]2(C)[C@H]([C@H](OC(=O)c3ccccc3)[C@]3(O)C[C@H](OC(=O)[C@H](O)[C@@H](NC(=O)c4ccccc4)c4ccccc4)C(C)=C1C3(C)C)[C@]1(OC(C)=O)CO[C@@H]1C[C@@H]2O", "note": "[PACLITAXEL]", "values": [{"measurement": "Activity", "setting": "PC-3 [2]", "value": "Active"}, {"measurement": "Activity", "setting": "PC-3 [3]", "value": "Dose-dependent effect"}, {"measurement": "IC50", "setting": "OVCAR-8", "value": 3.7, "unit": "nM"}, {"measurement": "Activity", "setting": "RD [4]", "value": "Active"}, {"measurement": "IC50", "setting": "RD [5]", "value": "> 10000", "unit": "nM"}, {"measurement": "IC50", "setting": "NCI-H1975", "value": 2.5, "unit": "nM"}, {"measurement": "Activity", "setting": "HepG2 [6]", "value": "Active"}, {"measurement": "Activity", "setting": "RD [7]", "value": "Active"}, {"measurement": "Activity", "setting": "HepG2 [8]", "value": "Dose-dependent effect"}]}, {"smiles": "CCOc1ccc2ccc(=O)oc2c1", "note": "[ETHOXYCOUMARIN]", "values": [{"measurement": "microsomal CLint", "setting": "[9]", "value": 209, "unit": "µL/min/mg"}, {"measurement": "microsomal CLint", "setting": "[10]", "value": 711, "unit": "µL/min/mg"}]}, {"smiles": "COc1cc(Sc2c(-n3ccnc3)[nH]c3ccccc23)cc(OC)c1OC", "values": [{"measurement": "inhibition", "setting": "[1]", "value": "Dose-dependent effect"}]}, {"smiles": "COc1ccc2c(Sc3cc(OC)c(OC)c(OC)c3)c(-c3ccccc3)[nH]c2c1", "values": [{"measurement": "inhibition", "setting": "[1]", "value": "Dose-dependent effect"}]}, {"smiles": "CC[C@]1(O)C[C@@H]2CN(CCc3c([nH]c4ccccc34)[C@@](C(=O)OC)(c3cc4c(cc3OC)N(C)[C@H]3[C@@](O)(C(=O)OC)[C@H](OC(C)=O)[C@]5(CC)C=CCN6CC[C@]43[C@@H]65)C2)C1", "note": "[VINBLASTINE]", "values": [{"measurement": "Activity", "setting": "HeLa [11]", "value": "Active"}, {"measurement": "Activity", "setting": "HeLa [12]", "value": "Active"}, {"measurement": "IC50", "setting": "PC-3 [13]", "value": 766, "unit": "nM"}, {"measurement": "IC50", "setting": "[14]", "value": 3, "unit": "nM"}, {"measurement": "IC50", "setting": "[15]", "value": 144, "unit": "nM"}, {"measurement": "IC50", "setting": "cells", "value": 200, "unit": "nM"}, {"measurement": "inhibition", "setting": "HeLa [16]", "value": "Active"}, {"measurement": "Activity", "setting": "HeLa [17]", "value": ">80", "unit": "%"}]}, {"smiles": "COc1cc(C(=O)c2ccn(-c3cccc(N)c3)c2)cc(OC)c1OC", "values": [{"measurement": "Activity", "setting": "HeLa [18]", "value": "inactive"}, {"measurement": "Activity", "setting": "HeLa [19]", "value": "inactive"}]}, {"smiles": "CCC1=C[C@@H]2CN(C1)Cc1c([nH]c3ccccc13)[C@@](C(=O)OC)(c1cc3c(cc1OC)N(C)[C@H]1[C@@](O)(C(=O)OC)[C@H](OC(C)=O)[C@]4(CC)C=CCN5CC[C@]31[C@@H]54)C2", "note": "[VINORELBINE]", "values": [{"measurement": "IC50", "setting": "cells", "value": 5000, "unit": "nM"}]}]}
